Values after ≈ are worked out from the molar mass of the structure shown.

A short description of data set [1]: Brain free fraction by equilibrium dialysis in rat brain tissue homogenate. Type of data set: in vitro ADME. The following applies: 10% rat brain tissue homogenate, Tables 2 and 3. The method, then: The extent to which compounds modulate SK2 channels in vivo is expressed as % SK2 SC100, which is the ratio of the concentration of the drug free in the brain to the measured potency of the compound on the SK2 channel. It is calculated as follows: CFB=CMB×BFF, where CMB is the concentration of compound measured by liquid chromatography mass spectrometry from brains harvested immediately following tremor recording (Table 1, “Measured Brain Concentration”). CFB is the amount of free compound not complexed with protein and therefore free to interact with the SK2 channel (Table 1, “Calculated Free Brain Concentration”). BFF is average free fraction of compound as measured by equilibrium dialysis in separate experiments (1 uM test concentration incubated in 10% rat brain tissue homogenate for 5 hours at 37° C.) (Table 1, “Brain Free Fraction”). Free drug in brain available to interact with SK2 channels (CFB) is arrived at by multiplying the measured total brain level (CMB) by the average free fraction (BFF).
Background: In equilibrium dialysis free small molecules cross a membrane that holds back macromolecules.

Data set [2] in a line: Aqueous (kinetic) solubility, shake-flask, phosphate buffer pH 7.4. The class given is physicochemical. The following applies: 23 °C, kinetic from dmso stock, phosphate buffer pH 7.4, 16 hours at room temperature. As to the method:
Aqueous solubility (kinetic solubility) tests of the compounds were performed in phosphate buffer saline (pH 7.4) measured by shake-flask method. In this assay, DMSO stock solution of test compound is added to buffer followed by equilibration (shaking), filtration and determination of soluble amount by HPLC-UV Conditions used in the assay are summarized below.

A further data set deals with T1, SK2 channels (Homo sapiens, UniProt Q9H2S1).
T1 construct: expressed in transfected cells; host or cells: HEK293
Kind of data set: Whole-cell patch-clamp of SK2 current in HEK293 cells expressing SK2 channels. The class given is cell-based. As to conditions: Table 2; concentration that produces doubling of channel current; averages from later experiments. As to the method: The biological activity was determined as follows. The ionic current through small-conductance Ca^2+-activated K^+ channels (SK channels, subtype 2) was measured using the whole-cell configuration of the patch-clamp technique in a patch-clamp set-up using HEK293 tissue culture cells expressing SK2 channels as described in Hougaard et al., British Journal of Pharmacology 151, 655-665, May 8, 2007, the entire teachings of which are incorporated herein by reference. In one aspect, a compound is defined to be an SK Positive Allosteric Modulator (PAM) if the compound increases current in this assay, for example, if the SC100 value of the compound is less than or equal to 10 μM as determined by this assay. The SC100 value is defined to be the concentration of compound that increases the basal current by 100%.
(In general: Patch clamp records ionic current or voltage across a cell membrane.)

Consider `Cc1csc(-c2nc(NC3CCC(F)(F)CC3)cc([C@@H](C)O)n2)n1` (single isomer, unassigned) [Compound 6], for which the fraction unbound (in general, the share of the substance not bound to proteins or other matrix) at 5 h, 1 uM in data set [1] worked out at 0.0431. The solubility (kinetic) (commonly the concentration staying in solution when a stock, usually in DMSO, is diluted into the medium) at 16 h in data set [2] came to 66.7 µg/mL (≈ 188 µM). Consider `Cc1cc(C)n(-c2nc(Nc3ccc(Cl)cc3)cc(N3CCOCC3)n2)n1` [Comparator C, reference compound], for which the fraction unbound at 5 h, 1 uM in data set [1] is 0.0016. Further, the kinetic solubility at 16 h in data set [2] is 1 µg/mL (≈ 2.6 µM). For the compound `Cc1ccn(-c2nc(N[C@@H]3CCCC[C@H]3F)cc(N3CCOCC3)n2)n1` [Comparator B, reference compound], at SK2 channels, the “SK2 potency (SC100)” value amounted to 5.8 µM. Compound `Cc1csc(-c2nc(NC3CCC(F)(F)CC3)cc([C@H](C)O)n2)n1` (single isomer, unassigned) [Compound 5] displayed a fraction unbound at 5 h, 1 uM in data set [1] of 0.042. Also, in data set [2], the kinetic solubility at 16 h was 80.3 µg/mL (≈ 227 µM).

Compound `FC1(F)CCC(Nc2cc(N3CCOCC3)nc(-n3ccc(C4CC4)n3)n2)CC1` [Compound 7, 2-(3-cyclopropyl-1H-pyrazol-1-yl)-N-(4,4-difluorocyclohexyl)-6-morpholinopyrimidin-4-amine] registered a fraction unbound at 5 h, 1 uM in data set [1] of 0.0155. In addition, in data set [2], the solubility (kinetic) at 16 h was 49.7 µg/mL (≈ 123 µM).

For `COc1cc(NC2CCC(F)(F)CC2)nc(-c2nc(C)cs2)n1` [Compound 3, N-(4,4-difluorocyclohexyl)-6-methoxy-2-(4-methylthiazol-2-yl) pyrimidin-4-amine], the fraction unbound at 5 h, 1 uM in data set [1] came out at 0.0269. Also, in data set [2], the kinetic solubility at 16 h turned out to be 70.9 µg/mL (≈ 208 µM).

In data set [1], `COc1cc(NC2CCC(F)(F)CC2)nc(-n2nc(C)cc2C)n1` [Compound 2, N-(4,4-difluorocyclohexyl)-2-(3,5-dimethyl-1H-pyrazol-1-yl)-6-methoxypyrimidin-4-amine] came in with a fraction unbound at 5 h, 1 uM of 0.0276. The compound further displayed a kinetic solubility at 16 h in data set [2] of 31 µg/mL (≈ 91.9 µM).

These data come from patent US10351553B2, “Potassium channel modulators” (Cadent Therapeutics, Inc., priority 2017, dated 2019).
